Reference: patent US4301140A, “Radiopharmaceutical method for monitoring kidneys” (G. D. Searle & Co., priority 1979, dated 1981)

Columns and labels:
[1] = cited from earlier work
[2] = Scintiscan (Anger camera) monitoring of distribution of radioactivity after intravenous administration, rhesus monkey; assay type: in vivo; parameters: key: -: no significant measured radioactivity; relative amounts of measured radioactivity ranging from (-) for no significant measured radioactivity to (+++) for the maximum measured radioactivity; relative amounts of measured radioactivity ranging from (-) for no significant measured radioactivity to (+++) for the maximum measured radioactivity; +++: the maximum measured radioactivity; settings: i.v., 7.6 mg, 0.79 mCi
Method: (§1) This procedure used with the rabbits was repeated with additional anesthetized animals: two female beagle dogs and two female rhesus monkeys. In these cases, however, unlike the cases of the rabbits, the complex solutions, again prepared generally as described in Examples 1 and 2, were injected intravenously in a saphenous vein of the dogs and monkeys.
Similarly 0.3 milliliter of a solution of the complex formed from technetium-99m and 1.1 milligrams of fructose 1,6-diphosphate having a radioactivity of 1.2 mCi were administered to one such monkey weighing 5.1 kilograms. Also 1.5 milliliters of a solution of the complex formed from technetium-99m and 7.6 milligrams of fructose 6-phosphate having a radioactivity of 0.79 mCi were administered to a second such monkey weighing 6.7 kilograms.
(§2) At various times after the aforesaid administrations of solutions of complexes of this invention, which times are indicated in Tables 1-6, scintiscan photographs and video tape recordings were taken of the aforesaid rabbit, beagles and monkeys using the Anger camera. This instrument was a Pho-Gamma LFOV Scintillation Camera System, Model 6413, fitted with a Model 3137 Vari-Back Camera, a Model 3122 Data-Store/Playback System and a Model 27851 Analog-Digital/Digital-AnalogConverter (all Searle Radiographics, Inc.). This entire system was interfaced with a Xerox 530 computer (Xerox Corp., Minneapolis, Minn.) which was programmed to record net counts per unit of time and percents of total counts in individual organs and to plot organ radioactivity versus time. The camera was operated with a 140 KeV high resolution Type II converging collimator using a 20 percent technetium-99m window. Generally 400,000 counts were accumulated on each scintiscan using both video tape and self-developing film, with the animal in the full ventral position. The photographs represented a visualization of the anatomic relationships in the kidneys.
(§3) Tables 1-6 contain semi-quantitative representations of the distribution of radioactivity in the organs of the test animals determined from the scintiscans. In Tables 1-6, (--), (+), (++) and (+++) indicate relative amounts of measured radioactivity ranging from (-) for no significant measured radioactivity to (+++) for the maximum measured radioactivity.

[3] = Appearance of radioactive complex in kidneys and urinary bladder calculated from video tape measurements (FIG. 1), male mongrel dog; assay type: in vivo; settings: i.v., 3-5 mg, 3.5 mCi, about 45 min
Text: as §2
The appearance in the kidneys and urinary bladder of a male mongrel dog weighing 14.1 kilograms, of the radioactive complex formed from technetium-99m and 3-5 milligrams of fructose 6-phosphate administered intravenously as described above in a 0.5-1.0 milliliter solution prepared as in Example 2 and having a radioactivity of 3.5 mCi, was calculated from video tape measurements by the computer and is plotted in FIG. 1 as the percentage of total radioactivity administered in the form of the radioactive complex versus time after administration. At about 45 minutes after administration, about 60 percent of the total radioactivity administered was concentrated in the urinary bladder, with less than 7 percent of the total dose of the radioactive complex in the kidneys.

[4] = Scintiscan (Anger camera) monitoring of distribution of radioactivity after intravenous administration, female beagle dog; assay type: in vivo; parameters: key: -: no significant measured radioactivity; relative amounts of measured radioactivity ranging from (-) for no significant measured radioactivity to (+++) for the maximum measured radioactivity; relative amounts of measured radioactivity ranging from (-) for no significant measured radioactivity to (+++) for the maximum measured radioactivity; +++: the maximum measured radioactivity; settings: i.v., 7.3 mg, 0.84 mCi
Method: as §1
Three milliliters of a solution of the complex formed from technetium-99m and 9.4 milligrams of fructose 1,6-diphosphate and having a radioactivity of 0.5 mCi were administered to one such dog weighing 11.7 kilograms. In addition, 1.6 milliliters of a solution of the complex formed from technetium-99m and 7.3 milligrams of fructose 6-phosphate having a radioactivity of 0.84 mCi were administered to a second such dog weighing 10.5 kilograms.
as §2, §3

[5] = Scintiscan (Anger camera) monitoring of distribution of radioactivity after intravenous administration, rabbit; assay type: in vivo, New Zealand rabbit; parameters: key: -: no significant measured radioactivity; relative amounts of measured radioactivity ranging from (-) for no significant measured radioactivity to (+++) for the maximum measured radioactivity; relative amounts of measured radioactivity ranging from (-) for no significant measured radioactivity to (+++) for the maximum measured radioactivity; +++: the maximum measured radioactivity; settings: i.v., 1.21 mg, 0.81 mCi
Method: Approximately 0.2 milliliter of a solution of the complex formed from technetium-99m and 0.95 milligram of fructose 1,6-diphosphate and prepared generally as described in Example 1 and having a radioactivity of 0.5 millicurie was administered intravenously to an anesthetized New Zealand rabbit weighing about 3 kilograms. Approximately the same volume of a solution of the complex formed from technetium-99m and 1.21 milligrams of fructose 6-phosphate prepared generally as described in Example 2, having a radioactivity of 0.81 millicurie was similarly administered to a second New Zealand rabbit of about the same weight. The injections were made using a 1 milliliter tuberculin syringe connected to a #23 gauge indwelling cannula inserted into a marginal ear vein. Each rabbit was positioned in a full ventral position for 2.5 to 3 hours during which time the disposition of the radioactivity in the rabbit in this position was monitored using a computer-augmented Anger camera. The measurements and results are discussed hereinafter, and the results of the test using the fructose 1,6-diphosphate and fructose 6-phosphate complexes are presented in Tables 1 and 2, respectively.
as §2, §3

[6] = Plasma clearance after intravenous injection, dogs (gamma spectrometer); assay type: in vivo, dog (male mongrel and female beagle); settings: i.v., four tests
Method: In each case about 0.5-2 milliliters of a solution of the complex having radioactivity of about 1-4 mCi and formed from 0.5-10 milligrams of complexing agent were administered. […] The dogs ranged in weight from 6 to 15 kilograms. Periodically blood samples were removed from the jugular vein of the dogs and collected in vacuum tubes containing the disodium salt of ethylenediamine tetracetic acid and the radioactivity of one milliliter samples of plasma were measured in a gamma spectrometer.
The gamma spectrometer employed was a Model 1185 Gamma Scintillation Spectrometer (Searle Analytic Inc., Des Plaines, Ill.). One milliliter samples of plasma or whole blood were analyzed for technetium-99m, and samples were counted for 1 minute. As determined by the computer, the curve in FIG. 2 and the five other corresponding curves (not shown) from the other tests with the dogs were the best fitting curves passing through the plots of experimentally measured radioactivities.

## O=C(O)CNC(=O)c1ccccc1[131I] [131I-o-iodohippurate]
[1]; after intravenous injection
  route of excretion: excreted through the kidneys exclusively
[1]; in vivo
  clearance model: appears to follow the two-compartment model

## complex of technetium-99m and fructose 6-phosphate
[2]; 4 min
  Relative distribution of complex: Kidneys: ++
  Relative distribution of complex: Urinary Bladder: +++
  Relative distribution of complex: Vascular: +
[2]; 30 min
  Relative distribution of complex: Kidneys: ++
  Relative distribution of complex: Urinary Bladder: +++
  Relative distribution of complex: Vascular: +
[2]; 50 min
  Relative distribution of complex: Kidneys: +
  Relative distribution of complex: Urinary Bladder: +++
  Relative distribution of complex: Vascular: -
[2]; 65 min
  Relative distribution of complex: Kidneys: +
  Relative distribution of complex: Urinary Bladder: +++
  Relative distribution of complex: Vascular: -
[3]
  percentage of total dose of the radioactive complex in the kidneys: less than 7%
  percentage of total radioactivity administered concentrated in the urinary bladder: about 60%
  radioactivity concentrated in any other organ: No measurable radioactivity
[4]; 1 min
  Relative distribution of complex: Kidneys: ++
  Relative distribution of complex: Urinary Bladder: -
  Relative distribution of complex: Vascular: ++
[4]; 6 min
  Relative distribution of complex: Kidneys: ++
  Relative distribution of complex: Urinary Bladder: +
  Relative distribution of complex: Vascular: +
[4]; 25 min
  Relative distribution of complex: Kidneys: +
  Relative distribution of complex: Urinary Bladder: ++
  Relative distribution of complex: Vascular: +
[4]; 30 min
  Relative distribution of complex: Kidneys: +
  Relative distribution of complex: Urinary Bladder: +++
  Relative distribution of complex: Vascular: +
[4]; 40 min
  Relative distribution of complex: Kidneys: +
  Relative distribution of complex: Urinary Bladder: +++
  Relative distribution of complex: Vascular: -
[4]; 50 min
  Relative distribution of complex: Kidneys: +
  Relative distribution of complex: Urinary Bladder: +++
  Relative distribution of complex: Vascular: -
[4]; 60 min
  Relative distribution of complex: Kidneys: +
  Relative distribution of complex: Urinary Bladder: +++
  Relative distribution of complex: Vascular: -
[4]; 70 min
  Relative distribution of complex: Kidneys: +
  Relative distribution of complex: Urinary Bladder: +++
  Relative distribution of complex: Vascular: -
[4]; 80 min
  Relative distribution of complex: Kidneys: +
  Relative distribution of complex: Urinary Bladder: +++
  Relative distribution of complex: Vascular: -
[4]; 90 min
  Relative distribution of complex: Kidneys: +
  Relative distribution of complex: Urinary Bladder: +++
  Relative distribution of complex: Vascular: -
[5]; 1 min
  Relative distribution of complex: Kidneys: ++
  Relative distribution of complex: Urinary Bladder: +
  Relative distribution of complex: Vascular: ++
[5]; 30 min
  Relative distribution of complex: Kidneys: ++
  Relative distribution of complex: Urinary Bladder: ++
  Relative distribution of complex: Vascular: +
[5]; 60 min
  Relative distribution of complex: Kidneys: ++
  Relative distribution of complex: Urinary Bladder: +++
  Relative distribution of complex: Vascular: +
[5]; 120 min
  Relative distribution of complex: Kidneys: +
  Relative distribution of complex: Urinary Bladder: +++
  Relative distribution of complex: Vascular: -
[5]; 150 min
  Relative distribution of complex: Kidneys: +
  Relative distribution of complex: Urinary Bladder: +++
  Relative distribution of complex: Vascular: -
[6]; single obviously erroneous measurement eliminated, standard deviation 0.025 hour
  improved average half time, distributive phase: 0.072 h
[6]; single obviously erroneous measurement eliminated, standard deviation 0.72 hour
  improved average half time, elimination phase: 1.68 h
[6]; standard deviation 0.023 hour
  average half time, distributive phase: 0.088 h
[6]; standard deviation 3.29 hours
  average half time, elimination phase: 3.98 h
